The results in this text go back to article PMC5377235, “A new target region for changing the substrate specificity of amine transaminases” (Scientific Reports, 2015).

Molecules are shown by their SMILES.

One test concerns the target T1, ATA-117-Rd11 (Arthrobacter sp. KNK168, UniProt F7J696, S8P/Y60F/L61Y/H62T/V65A/V69T/D81G/M94I/I96L/F122M/S124T/S126T/G136F/Y150S/V152C/A169L/V199I/A209L/G215C/G217N/S223P/L269P/L273Y/T282S/A284G/P297S/S321P).
T1 construct: gene TAS; synthetic gene, pET28a N-His tag, thrombin cleaved; E. coli; homodimer
The experiment in a line: X-ray crystal structure, […] Å. Type of test: binding. Particulars: covalent; internal aldimine.

Test [1] concerns the target T2, Ab-R-ATA (Arthrobacter sp. KNK168, UniProt F7J696).
T2 construct: gene TAS; full length, 330 amino acids, no tag, pUCNT vector, E. coli Rosetta (DE3); homodimer, active site formed with loop 129-145 of the other protomer
In words: HPLC of acetophenone formed, initial kinetics. The test is classed as biochemical. The following applies: 10 mM (R)-1-phenylethylamine as amino donor, 0.5 mM PLP, 100 mM Tris-HCl pH 8.5, 30 °C. The text has this: (§1) HPLC of acetophenone formed, initial kinetics on Ab-R-ATA | The kcat/Km values for pyruvate of the R138A and the R138Q mutants

In test [2] the target is T3, Ab-R-ATA (Arthrobacter sp. KNK168, UniProt F7J696, R138Q, form not given).
T3 construct: gene TAS; full length, 330 amino acids, no tag, pUCNT vector, E. coli Rosetta (DE3); homodimer, active site formed with loop 129-145 of the other protomer
The experiment in a line: HPLC of acetophenone formed, initial kinetics. The test is classed as biochemical. The following applies: 10 mM (R)-1-phenylethylamine as amino donor, 0.5 mM PLP, 100 mM Tris-HCl pH 8.5, 30 °C.
Excerpt: as §1

With `Cc1ncc(COP(=O)(O)O)c(C=O)c1O` [PLP], the “X-ray crystal structure, 2.20 Å” value on ATA-117-Rd11 is recorded as “The cofactor PLP in the active site is shown as green sticks”.

In the case of `CC(=O)C(=O)O` [pyruvate], the Michaelis constant (Km) (commonly the substrate concentration at which the rate is half of its maximum) on Ab-R-ATA [1] is 5.8 ± 0.1 mM; at Ab-R-ATA [2] it was 66 ± 3 mM.
